Experimental findings from patent publication US20230263758A1, “COMPOSITIONS OF EDTA HAVING ACTIVITY AGAINST PLANKTONIC AND BIOFILM CELLS OF CLINICALLY RELEVANT PATHOGENS” (SterileCare Inc., priority 2022, published 2023) are described below.

Counter-ions that a name gives are not always drawn.

Common to all, as to format: cell-based
Test [1] concerns Proteus mirabilis ON153. The test can be described thus: Checkerboard FBEC index, 48-h biofilm. The settings on record: P. mirabilis ON153 biofilm; EDTA + chlorhexidine HCl.
Procedure: (§3) In step (4), microtiter plates are incubated at 37° C. for 24 h. then (6), after incubation, the bacterial and fungal cells were dislodged from the pegs into the recovery medium described above.
(§4) Three 10-μL aliquots, for a total of 30 μL from each well of recovery medium, were spotted on MH agar plates and incubated for 24 h at 37° C. […] The FBEC determination is a modification of the FICI.
For test [2], the system named is Staphylococcus aureus ON89. Nature of the test: Checkerboard titration, FICI. The settings on record: S. aureus ON89. As for the experimental part: (§1) A fourth composition and solution included tetrasodium EDTA with ethanol or chlorhexidine HCl. This fourth composition and solution were created using checkerboard titration methods using micro broth dilution in 96-well microtiter plates. The concentrations of antimicrobials used were based on previously determined MIC values. Briefly, 200 μL of two-fold dilutions of tetrasodium EDTA and ethanol or chlorhexidine HCl were prepared in MH or MH II broth with standardized cell suspension. […] Microtiter plates were incubated at 37° C. for 24 h, and the results were analyzed. Each test was performed in duplicate and included a growth control without adding any antimicrobials.

In test [3] the test system is Pseudomonas aeruginosa SK1. The test can be described thus: Checkerboard titration, FICI. The settings on record: P. aeruginosa SK1. The procedure:
as §1

In test [4] the test system is Escherichia coli ON29. Nature of the test: Checkerboard titration, FICI. The settings on record: E. coli ON29. As for the experimental part: as §1
Test [5] has as its system Stenotrophomonas maltophilia ON17. Nature of the test: Checkerboard titration, FICI. As to conditions: S. maltophilia ON17. As for the experimental part:
as §1

Test [6] deals with Staphylococcus epidermidis ON170. The test can be described thus: Checkerboard titration, FICI. As to conditions: S. epidermidis ON170. As for the experimental part: as §1
Test [7] concerns Proteus mirabilis ON153. Nature of the test: Checkerboard titration, FICI. As to conditions: P. mirabilis ON153. The procedure:
as §1

In test [8] the test system is Serratia marcescens SK2. Nature of the test: Checkerboard titration, FICI. The settings on record: S. marcescens SK2. As for the experimental part: as §1
The test system of test [9] is Candida albicans SK4b. The test can be described thus: Checkerboard titration, FICI. As to conditions: C. albicans SK4b. As for the experimental part:
as §1

Test [10] has as its system Staphylococcus aureus ON89. Nature of the test: Checkerboard FBEC index, 48-h biofilm. The settings on record: S. aureus ON89 biofilm.
Procedure: as §3, §4
In test [11] the test system is 48-h old biofilms of bacterial and fungal test organisms. The test can be described thus: Rapid biofilm eradication, 2-h exposure. The settings on record: each agent alone at its MBEC. As for the experimental part:
Determining rapid biofilm eradication by tetrasodium EDTA, ethanol, and chlorhexidine HCl alone and in combination was performed. After biofilm formation, control pegs (n=6) were removed and analyzed to determine the starting biofilm cell numbers via the drop dilution method. The 48-h old biofilms on the pegs were exposed to different concentrations of test antimicrobials, dissolved in an appropriate growth medium, for two h to evaluate their efficacy alone and in combination. […] Following treatment, pegs were washed twice with sterile PBS, and the biofilm cells were dislodged into recovery medium and enumerated as described above.
The method for rapid biofilm eradication ability of test antimicrobials alone and in combination against 48-h-old biofilms within two h exposure time included (1) choosing different concentrations of test antimicrobials to assess their potency in eradicating preformed biofilms of study organisms within two h. Then (2) the quantitative recovery from biofilms following exposure to the antimicrobial solutions for bacterial strains (FIGS. 4A-4C) and fungal strains (FIG. 5) was evaluated.

In test [12] the test system is Staphylococcus aureus ON89. The test can be described thus: MIC, micro broth dilution. The settings on record: S. aureus ON89; agent alone. The procedure:
(§2) An assay was made using a minimum inhibitory concentration (MIC) and minimum bactericidal concentration (MBC) and minimum fungicidal concentration (MFC) determination. The MIC was determined by the micro broth dilution method in 96-well plates. Serial two-fold dilutions of tetrasodium EDTA (from 2% to 0.015%), ethanol (from 50% to 0.1%) and chlorhexidine HCl (from 100 μg/mL to 0.025 μg/mL) were prepared in MH broth with a final volume of 90 μL per well. A 10 μL containing 1×10^5 bacterial cells or 2×10^3 fungal cells were added to each well. The inoculated plates were covered with a lid, sealed with Parafilm, and incubated for 24 h at 37° C. with slight rocking on a tilting platform shaker. After incubation, the optical density at 600 nm (OD 600) of the cultures in each well was measured using an xMark™ Microplate Absorbance Spectrophotometer (Bio-Rad). […] MBCs and MFCs were determined by transferring 100 μL from each well with no apparent growth onto appropriate agar plates, followed by incubation for 24 h at 37° C.
(In broth dilution the organism is exposed to a series of concentrations in liquid medium.)

Test [13] concerns Pseudomonas aeruginosa SK1. The test can be described thus: MIC, micro broth dilution. The settings on record: P. aeruginosa SK1; agent alone. The procedure:
as §2

Test [14] relates to Escherichia coli ON29. Nature of the test: MIC, micro broth dilution. The settings on record: E. coli ON29; agent alone. The procedure: as §2
Test [15] has as its system Stenotrophomonas maltophilia ON17. The test can be described thus: MIC, micro broth dilution. As to conditions: S. maltophilia ON17; agent alone. As for the experimental part: as §2
For test [16], the system named is Staphylococcus epidermidis ON170. Nature of the test: MIC, micro broth dilution. As to conditions: S. epidermidis ON170; agent alone. The procedure: as §2
The test system of test [17] is Proteus mirabilis ON153. Nature of the test: MIC, micro broth dilution. The settings on record: P. mirabilis ON153; agent alone. As for the experimental part:
as §2

For test [18], the system named is Serratia marcescens SK2. The test can be described thus: MIC, micro broth dilution. The settings on record: S. marcescens SK2; agent alone. As for the experimental part:
as §2

The test system of test [19] is Candida albicans SK4b. The test can be described thus: MIC, micro broth dilution. As to conditions: C. albicans SK4b; agent alone. As for the experimental part: as §2
Test [20] deals with Staphylococcus aureus ON89. Nature of the test: MBC/MFC determination. The settings on record: S. aureus ON89; agent alone. As for the experimental part:
as §2

Test [21] concerns Pseudomonas aeruginosa SK1. Nature of the test: MBC/MFC determination. As to conditions: P. aeruginosa SK1; agent alone. As for the experimental part:
as §2

For test [22], the system named is Escherichia coli ON29. The test can be described thus: MBC/MFC determination. As to conditions: E. coli ON29; agent alone. As for the experimental part:
as §2

In test [23] the test system is Stenotrophomonas maltophilia ON17. Nature of the test: MBC/MFC determination. The settings on record: S. maltophilia ON17; agent alone. As for the experimental part: as §2
The test system of test [24] is Staphylococcus epidermidis ON170. The test can be described thus: MBC/MFC determination. As to conditions: S. epidermidis ON170; agent alone. As for the experimental part: as §2
In test [25] the test system is Proteus mirabilis ON153. The test can be described thus: MBC/MFC determination. As to conditions: P. mirabilis ON153; agent alone. As for the experimental part: as §2
The test system of test [26] is Serratia marcescens SK2. The test can be described thus: MBC/MFC determination. The settings on record: S. marcescens SK2; agent alone. As for the experimental part: as §2
The subject of test [27] is Candida albicans SK4b. Nature of the test: MBC/MFC determination. The settings on record: C. albicans SK4b; agent alone. The procedure: as §2
Setting [28] is: EDTA + chlorhexidine HCl checkerboard.

With `[H]/N=C(\N/C(=N/[H])NCCCCCCNC(=N)NC(=N)Nc1ccc(Cl)cc1)Nc1ccc(Cl)cc1` [Chlorhexidine HCl, chlorhexidine HCl, reference compound], the “Biofilm eradication concentration in combination (FBEC)” value (in the test with Proteus mirabilis ON153 [1]; in test [10] (EDTA + chlorhexidine HCl)) was 3.125 µg/mL each time. For the same compound, the “Inhibitory concentration in combination” value amounted to 0.1 µg/mL in test [2] (setting [28]); 0.8 µg/mL in test [3] (setting [28]); 0.2 µg/mL in the test on Escherichia coli ON29 [4] (setting [28]); 0.2 µg/mL in test [5] (setting [28]); 0.05 µg/mL in test [6] (setting [28]); 0.8 µg/mL in the test with Proteus mirabilis ON153 [7] (setting [28]). The entries for the “Inhibitory concentration in combination” value in the test with Serratia marcescens SK2 [8] (setting [28]) and in the test on Candida albicans SK4b [9] (setting [28]) were 1.5 µg/mL and 0.8 µg/mL, respectively. Besides, in [11], the “Eradication of preformed biofilms after 2 h of exposure” value is recorded as “failed to eradicate”.
For the compound `O=C([O-])CN(CCN(CC(=O)[O-])CC(=O)[O-])CC(=O)[O-].[Na+].[Na+].[Na+].[Na+]` [EDTA, tetrasodium EDTA], the MIC is 0.063 % w/v in test [12]; 0.25 % w/v in test [13]; 0.5 % w/v with Escherichia coli ON29 [14]; 0.063 % w/v in [15]; 0.063 % w/v in test [16]; 1 % w/v in the test with Proteus mirabilis ON153 [17]. Moreover, the MIC in the test with Serratia marcescens SK2 [18] is 2 % w/v; with Candida albicans SK4b [19] it was 1 % w/v. In addition, the “Inhibitory concentration in combination” value in [2] (setting [28]) worked out at 0.008 % w/v; in test [2] (EDTA + ethanol checkerboard), 0.015 % w/v; in [3] (setting [28]), 0.5 % w/v; in [3] (EDTA + ethanol checkerboard), 0.031 % w/v; with Escherichia coli ON29 [4] (setting [28]), 0.008 % w/v; with Escherichia coli ON29 [4] (EDTA + ethanol checkerboard), 0.25 % w/v. Moreover, the “Inhibitory concentration in combination” value amounted to 0.015 % w/v in test [5] (setting [28]); 0.031 % w/v in test [5] (EDTA + ethanol checkerboard); 0.063 % w/v in [6] (setting [28]); 0.015 % w/v in [6] (EDTA + ethanol checkerboard); 0.063 % w/v in the test on Proteus mirabilis ON153 [7] (setting [28]); 0.5 % w/v with Proteus mirabilis ON153 [7] (EDTA + ethanol checkerboard). The “Inhibitory concentration in combination” value in the test with Serratia marcescens SK2 [8] (setting [28]) worked out at 0.063 % w/v; in the test with Serratia marcescens SK2 [8] (EDTA + ethanol checkerboard), 0.5 % w/v; in the test with Candida albicans SK4b [9] (setting [28]), 0.063 % w/v; with Candida albicans SK4b [9] (EDTA + ethanol checkerboard) it was 0.25 % w/v. Also, the “Biofilm eradication concentration in combination (FBEC)” value in test [10] (EDTA + ethanol) was found to be 0.063 % w/v. Moreover, the “Eradication of preformed biofilms after 2 h of exposure” value in test [11] is “failed to eradicate”. Further, the MBC/MFC in test [20] is 1 % w/v; in [21], 1 % w/v; against Escherichia coli ON29 [22] it was 1 % w/v; in test [23], 1 % w/v; in test [24], 0.5 % w/v; in the test on Proteus mirabilis ON153 [25] it was 2 % w/v. Moreover, the values for the MBC/MFC in the test on Serratia marcescens SK2 [26] and in the test on Candida albicans SK4b [27] were 2 % w/v and 1 % w/v, respectively.
